The values that follow come from BindingDB's records for patent US10961236 (Astrazeneca, 2021).

Molecules are shown by their SMILES.

The experiment has as its target T1, Phosphatidylinositol 4,5-bisphosphate 3-kinase catalytic subunit gamma isoform [144-1102] (Homo sapiens, UniProt P48736).
T1 construct: 144-1102
The experiment can be described thus: Enzymatic Activity Assay. How it is done:
Routinely, inhibitors were pre-incubated with 3 μl of enzyme for 15 min prior to the addition of 2 μl substrate mixture for a further 60 min enzyme reaction. The phosphorylation was stopped with the addition of 3 μl ADP-Glo reagent (stop solution) followed by a 40 min incubation. Prior to detection 6 μl of ADP-Glo Kinase Detection Reagent was added and the plates were read in a micro plate reader using a Luminescence filter. All additions were followed by a short centrifugation step.

T1 sequence (P48736 144-1102): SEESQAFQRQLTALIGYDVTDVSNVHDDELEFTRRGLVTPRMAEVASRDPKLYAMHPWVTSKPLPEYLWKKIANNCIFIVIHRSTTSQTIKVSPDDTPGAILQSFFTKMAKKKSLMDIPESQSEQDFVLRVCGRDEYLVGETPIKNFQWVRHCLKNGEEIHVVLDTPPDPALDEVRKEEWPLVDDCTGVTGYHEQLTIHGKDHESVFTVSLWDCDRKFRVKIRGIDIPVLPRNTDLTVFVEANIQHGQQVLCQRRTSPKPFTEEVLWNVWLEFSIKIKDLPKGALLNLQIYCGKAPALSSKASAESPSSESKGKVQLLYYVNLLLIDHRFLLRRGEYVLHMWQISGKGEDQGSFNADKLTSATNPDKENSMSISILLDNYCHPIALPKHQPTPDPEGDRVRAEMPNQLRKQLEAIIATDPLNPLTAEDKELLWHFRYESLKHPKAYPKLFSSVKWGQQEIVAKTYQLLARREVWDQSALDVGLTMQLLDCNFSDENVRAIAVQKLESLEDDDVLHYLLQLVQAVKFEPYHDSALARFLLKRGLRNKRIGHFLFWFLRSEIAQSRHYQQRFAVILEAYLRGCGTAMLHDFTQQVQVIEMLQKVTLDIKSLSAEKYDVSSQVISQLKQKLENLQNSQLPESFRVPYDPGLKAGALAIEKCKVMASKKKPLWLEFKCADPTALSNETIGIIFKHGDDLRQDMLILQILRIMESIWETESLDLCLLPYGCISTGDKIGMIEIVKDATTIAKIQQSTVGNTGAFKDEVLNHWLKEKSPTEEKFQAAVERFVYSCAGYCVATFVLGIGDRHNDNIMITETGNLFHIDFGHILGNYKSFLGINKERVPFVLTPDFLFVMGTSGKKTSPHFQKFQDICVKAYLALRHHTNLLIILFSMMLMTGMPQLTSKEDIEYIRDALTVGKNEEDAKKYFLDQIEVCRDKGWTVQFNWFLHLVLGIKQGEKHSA

As usually defined, the IC50 is the midpoint of a concentration-inhibition curve. A low value points to higher potency. Compound `CC[C@H](C)N1Cc2cc(-c3sc(Nc4cccc(N5CCCOC5=O)n4)nc3C)cc(S(=O)(=O)NC)c2C1=O` [US10961236, Example 61] came in with an IC50 of 1 nM.
